According to US4752614A, “Pharmaceutical compositions of tellerium and selenium compounds for the induction of in vivo and in vitro production of cytokines” (Bar-Ilan University, priority 1987, dated 1988):
Where “and” joins values, the source holds several entries; their conditions need not be identical. Equal entries are not always repeated. Entries after “also recorded” stand apart in the source; their conditions may differ.

Experiments:
[1] = test system: IL-2; test: IL-2 activity (CTLD proliferation) of Con A supernatants of spleen cells from mice injected IP (Example 3); type: in vivo, Balb-c mice
Protocol: A solution of the compound of Example 1 was prepared as follows: 5 mg was placed in a volumetric flask to which was added 100 ml of a solution of 40% dimethyl sulfoxide (DMSO) and 60% phosphate buffer saline (PBS) solution resulting in a concentration of 10 μg/0.2 ml. If the solution becomes turbid, it is centrifuged at 2000 rpm for ten minutes and the clear supernatant portion is used.
The test animals were Balb-c, male, mice, 6 to 8 weeks of age. All injections were made intraperitoneally using 0.2 ml of the solution of the compound of Example 1 using 25 gauge 5/8" hypodermic needle.
The animals received the following injections:
Each of groups a, b, c and d consisted of 21 animals. The animals were sacrificed daily from 24 h to 7 days after injection.
On each day, spleen cells from three of the animals from each control group were pooled together and processed by passing the spleen cells through a 60 mesh stainless steel net in a 5 mm Petri dish containing PBS in order to separate the cells. The cells were collected and centrifuged at 1000 rpm for 10 minutes. The supernatant was discarded and the cells were treated for two minutes with 5 ml of hypotonic buffer (0.15M NH4 Cl, 0.01M KHCO3 dissolved in double distilled water, pH 7.2) to kill the erythrocytes. Thereafter, PBS was added to the cells and the cells were centrifuged for 10 minutes at 1000 rpm. The cells were washed twice with PBS and counted in a haemocytometer using trypan blue to test for viability. The cells were brought to a concentration of 10^7 cells/ml using enriched RPMI containing 10% fetal calf serum (Ser Lab, Sussex, England); 5×10^-5 M 2-mercaptoethanol and 3% of d-glutamine (Bio Lab Israel) (stock solution 2m M×1000 nonessential amino acids) (Bio Lab, Israel) (stock solution×100) and sodium pyruvate (Bio Lab, Israel) (stock solution 1m M×100).
An additional three animals from each of the experimental groups were sacrificed and each of the spleens was processed separately using the same procedure.
The cell mixture was divided into two groups.
(a) Cells at a concentration of 10^7 cells/ml enriched RPMI to which was added concanavalin-A (CON A) (DiFCO, Batch 352) 2 μg./ml. These cells were incubated in 5 mm Petri dishes (NUNC) for 24 hours at 37° C., 7.5% CO2. Supernatants were collected, centrifuged at 1,600 rpm for 10 minutes and stored at 4° C. until used. These supernatants were assayed for IL-2 and CSF activity.
Prior to incubation of the cells, samples were removed from culture plates and smears of the cultures were made by cytocentrifugation. Slides were stained with May-Grunwald-Giemsa (1:10) solution and evaluated morphologically. A radioactive thymidine assay was used to determine IL-2 activity.
1. Supernatants were tested for IL-2 activity by the proliferation of the IL-2 dependent cell line CTLD. The IL-2 assay is based on the growth dependence of these cultured T-cell lines on IL-2. T cells harvested from IL-2 dependent culture, washed and placed back in culture in the absence of IL-2 invariably die within 24 hr. By using tritiated thymidine incorporation (^3 H-TdR) as an index of cultured T-cell replication, the IL-2 microassay provides a highly reproducible and quantitive indication of the amount of IL-2 activity in the supernatant prepared hereinabove.
2. To assay a condition medium for IL-2 activity, a sample containing 5×10^4 CTLD cells, 10% fetal calf serum and 50% of supernatant in question, all were suspended in a final volume of 1 ml RPMI. Aliquots of 0.2 ml from each sample were placed in four replicate wells of 96 microwell tissue culture plates (NUNC). Conditioned medium was obtained from cultures of Charles River rat spleen cells stimulated with Con A that contained a known amount of IL-2 as a reference in all assays.
3. The microwells were incubated for 24 hr at 37 degrees C. after which 1 microcurie/well of ^3 H-methylthymidine was added. […]

[2] = test system: IL-2 receptors; test: Induction of IL-2 receptors of human mononuclear cells, proliferation with recombinant IL-2 (Example 18); type: cell-based
Protocol: Human MNC were brought to a concentration of 10^6 cells/ml. RPMI+10% FCS. Aliquots of 0.2 ml. were placed in duplicate wells of microdishes and plates were incubated at 37° C. for 24 hrs. […] Plates were further incubated for 48 hrs. and labelled with 3H thymidine 24 hrs. before harvesting.
The proliferation was measured by ^3 HT uptake as described by Gillis et al, J. Immunol. […] The results are expressed in counts per minute.

[3] = test system: receptor sites for IL-2; test: Detection of IL-2 receptors with fluoresceinated antibody (Example 21); type: cell-based, human; conditions: 1 μg/ml, 24 hours
Protocol: This example provides an assay to detect the presence of receptor sites for IL-2. […] The cells were washed twice with PDS and then incubated with a specific fluoresceinated antibody against IL-2 receptors as described in Uchiyama et al, J. Immunol.

[4] = test system: West Nile virus (WNV); test: West Nile virus infection in mice (Example 22); type: in vivo, ICR mice; conditions: for # Alive/Total Animals: Table A; for # Alive/Total Animals / # Alive/Total: preliminary; for # Alive/Total: Table B
Protocol: The compounds may be used as anti-bacterial or anti-viral agents in plants or in animals. Virus infections such as West Nile virus infections in mice are susceptible to the compound of the Example 1 at a dose of 10 μg/day/mouse. Plant bacterial infections such as crown gall caused by Agrobacterium tumefaciens may be treated or prevented by the application of a 0.1% solution of compounds of the invention.
The effect of the compound of Example 1 on an infection with West Nile virus (WNV) was determined. WNV is a toga virus of the flavivirus group, a positive single stranded RNA virus, which when injected IP to mice usually kills them within 5-8 days as a result of extensive damage to the central nervous system. For this study ICR mice (3 wks of age) were injected IP with the virus at the concentration of 10^3 or 10^4 LD 50 units/mouse. Injections of 10 μg/0.2 ml PBS/mouse of the compound of Ex. 1 were given on day -1 (one day prior to injection of virus) and 6 days after injection of virus.
In a second experiment, mice were injected with 10^3 IPLD50 virus and received injections of the compound of Example 1 (1 μg/0.2 ml PBS/mouse) on days -1, 1, 2 and 4.

With `Cl[TeH]1(Cl)(Cl)OCCO1` [Example 1] the IL-2 activity ([1]; 1 μg IP, day 1, individual mouse) was 25,919 CPM and 34,326 CPM and 16,718 CPM, the IL-2 activity ([1]; 1 μg IP, day 2, individual mouse) was 21,398 CPM and 22,050 CPM and 9,338 CPM and the IL-2 activity ([1]; 1 μg IP, day 3, individual mouse) was 10,130 CPM and 13,235 CPM and 2,176 CPM. For the same molecule, the IL-2 activity ([1]; 1 μg IP, day 4, individual mouse) was 31,999 CPM and 14,226 CPM and 17,228 CPM, the IL-2 activity ([1]; 1 μg IP, day 6, individual mouse) was 41,261 CPM and 80,314 CPM and 42,485 CPM and the IL-2 activity ([1]; 1 μg IP, day 7, individual mouse) was 66,854 CPM and 58,094 CPM and 51,268 CPM. The IL-2 activity ([1]; 10 μg IP, day 1, individual mouse) was 24,335 CPM and 21,193 CPM and 25,381 CPM, the IL-2 activity ([1]; 10 μg IP, day 2, individual mouse) was 31,901 CPM and 36,390 CPM and 22,066 CPM and the IL-2 activity ([1]; 10 μg IP, day 3, individual mouse) was 20,316 CPM and 18,288 CPM and 12,126 CPM. The IL-2 activity ([1]; 10 μg IP, day 4, individual mouse) was 26,644 CPM and 18,051 CPM and 65,963 CPM, the IL-2 activity ([1]; 10 μg IP, day 6, individual mouse) was 22,040 CPM and 74,043 CPM and 43,838 CPM and the IL-2 activity ([1]; 10 μg IP, day 7, individual mouse) was 85,216 CPM and 6,299 CPM. The “proliferation (3HT uptake)” value ([2]; Test A, 1 μg/ml) was 28625 counts per minute and 27593 counts per minute, the “proliferation (3HT uptake)” value ([2]; Test A, 1 × 10^-3 μg/ml) was 3652 counts per minute and 5055 counts per minute and the “proliferation (3HT uptake)” value ([2]; Test A, 1 × 10^-4 μg/ml) was 3558 counts per minute and 4047 counts per minute. For the same molecule, the “proliferation (3HT uptake)” value ([2]; Test A, 1 × 10^-5 μg/ml) was 2474 counts per minute and 4063 counts per minute, the “proliferation (3HT uptake)” value ([2]; Test A, 5 × 10^-1 μg/ml) was 120755 counts per minute and 105943 counts per minute and the “proliferation (3HT uptake)” value ([2]; Test B, 1 μg/ml) was 23488 counts per minute. For the same molecule, the “proliferation (3HT uptake)” value ([2]; Test B, 1 × 10^-2 μg/ml) was 6057 counts per minute, the “proliferation (3HT uptake)” value ([2]; Test B, 1 × 10^-3 μg/ml) was 5865 counts per minute and the “proliferation (3HT uptake)” value ([2]; Test B, 1 × 10^-4 μg/ml) was 4960 counts per minute. The “proliferation (3HT uptake)” value ([2]; Test B, 1 × 10^-5 μg/ml) was 7155 counts per minute, the “proliferation (3HT uptake)” value ([2]; Test B, 5 × 10^-1 μg/ml) was 66910 counts per minute and the “proliferation (3HT uptake)” value ([2]; Test B, 5 × 10^-2 μg/ml) was 5390 counts per minute. For the same molecule, the “proliferation (3HT uptake)” value ([2]; Test B, 7 × 10^-1 μg/ml) was 17620 counts per minute, the “cells positive for IL-2 receptors” value [3] was 20% and the “susceptibility of West Nile virus infections in mice” value ([4]; 10 μg/day/mouse) was “susceptible”. The “survival beyond day 8” value ([4]; 10^3 IPLD50, 1 μg/mouse days -1, 1, 2 and 4) was “Two out of the remaining three survived an additional 8 days; also recorded: the third remained alive without any manifestations of clinical symptoms”, the “# Alive/Total Animals” value ([4]; 10^3 LD50 virus, 10 μg/mouse days -1 and 6, after 8 days) was 3/5 and the “# Alive/Total Animals” value ([4]; 10^4 LD50 virus, 10 μg/mouse days -1 and 6, after 8 days) was 3/5. For the same molecule, the “# Alive/Total Animals” value ([4]; no virus (0), 10 μg/mouse days -1 and 6) was 6/6, the “# Alive/Total” value ([4]; 10^3 IPLD50, 1 μg/mouse days -1, 1, 2 and 4, day 8) was 3/5 and the “# Alive/Total” value ([4]; compound alone, 1 μg/mouse days -1, 1, 2 and 4, day 8) was 5/5.
